Reference: US10294202B2, “Pyrrolidinones as herbicides” (FMC Corporation, priority 2013, dated 2019)

Assays:
barnyardgrass [1] = experiment: Test A pre-/postemergence herbicide test; type: in vivo, Echinochloa crus-galli
Summary of the method: (§1)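 Visual 0–100 ratings (100 = complete control) made about 10 days after treatment, greenhouse-held plants compared with untreated controls. Treatments: postemergence sprays on one- to two-leaf plants (2–10 cm tall) and preemergence directed soil sprays after planting in loam–sand, chemicals formulated in non-phytotoxic solvent containing surfactant.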

kochia = experiment: Test A pre-/postemergence herbicide test; type: in vivo, Kochia scoparia
Summary of the method: as §1

ragweed = experiment: Test A pre-/postemergence herbicide test; type: in vivo, Ambrosia elatior
Summary of the method: as §1

ryegrass, Italian = experiment: Test A pre-/postemergence herbicide test; type: in vivo, Lolium multiflorum
Summary of the method: as §1

giant foxtail = experiment: Test A pre-/postemergence herbicide test; type: in vivo, Setaria faberii
Summary of the method: as §1

pigweed = experiment: Test A pre-/postemergence herbicide test; type: in vivo, Amaranthus retroflexus
Summary of the method: as §1

wheat = experiment: Test A pre-/postemergence herbicide test; type: in vivo, Triticum aestivum; settings: Postemergence; for Plant response rating, Wheat: 125 g ai/ha; for Wheat plant response rating (0 to 100 scale, 0 is no effect, 100 is complete control): 500 g ai/ha
Summary of the method: as §1

corn = experiment: Test A pre-/postemergence herbicide test; type: in vivo, Zea mays; settings: Postemergence
Summary of the method: as §1

blackgrass = experiment: Test A postemergence herbicide test; type: in vivo, Alopecurus myosuroides
Summary of the method: (§2)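 Plants at the one- to two-leaf stage, 2–10 cm tall, grown in loam/sand pots, received postemergence sprays of the test chemicals. After about 10 days in the greenhouse, injury was scored visually against untreated controls on a 0–100 scale (0 none, 100 complete control).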

galium = experiment: Test A postemergence herbicide test; type: in vivo, Galium aparine; settings: for Plant response rating, Galium: 125 g ai/ha; for Galium plant response rating (0 to 100 scale, 0 is no effect, 100 is complete control): 500 g ai/ha
Summary of the method: as §2

rice = experiment: Test B flooded paddy test; type: in vivo, Oryza sativa; settings: 500 g ai/ha, Flood; scale of 0 to 100 where 0 is no effect and 100 is complete control
Summary of the method: (§3)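 First, plants reach the 2-leaf stage; next, pots are flooded to 3 cm and compound is delivered into the water; finally, after 13 to 15 greenhouse days at constant depth, injury is graded visually from 0 to 100 against controls.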

sedge, umbrella = experiment: Test B flooded paddy test; type: in vivo, Cyperus difformis; settings: 500 g ai/ha, Flood; scale of 0 to 100 where 0 is no effect and 100 is complete control
Summary of the method: as §3

ducksalad = experiment: Test B flooded paddy test; type: in vivo, Heteranthera limosa; settings: 500 g ai/ha, Flood; scale of 0 to 100 where 0 is no effect and 100 is complete control
Summary of the method: as §3

barnyardgrass [2] = experiment: Test B flooded paddy test; type: in vivo, Echinochloa crus-galli; settings: 500 g ai/ha, Flood; scale of 0 to 100 where 0 is no effect and 100 is complete control
Summary of the method: as §3

[3] = 125 g ai/ha, visual rating, 0 to 100 scale, 0 no effect, 100 complete control, approximately 10 days, preemergence
[4] = Postemergence, 125 g ai/ha, 0 to 100 scale, 0 is no effect, 100 is complete control
[5] = preemergence, 500 g ai/ha, 0 to 100 scale, 0 is no effect and 100 is complete control
[6] = 0 to 100 scale, 0 is no effect, 100 is complete control
[7] = 125 g ai/ha, 0 to 100 scale, 0 is no effect, 100 is complete control
[8] = Postemergence, 125 g ai/ha, visual rating on 0 to 100 scale (0 no effect, 100 complete control), approx. 10 days
[9] = Postemergence, 500 g ai/ha, 0 to 100 scale (0 no effect, 100 complete control)
[10] = Preemergence, 125 g ai/ha, 0 to 100 scale where 0 is no effect and 100 is complete control
[11] = Preemergence, 500 g ai/ha, visual rating on 0 to 100 scale (0 no effect, 100 complete control)
[12] = visual rating on 0 to 100 scale (0 no effect, 100 complete control), approx. 10 days
[13] = 125 g ai/ha, visual rating on 0 to 100 scale (0 no effect, 100 complete control), approx. 10 days
[14] = 500 g ai/ha, 0 to 100 scale (0 no effect, 100 complete control)

SMILES: O=C1NCC(c2ccc(Cl)cc2)C1C(=O)Nc1ccccc1Cl (centres unmarked) [Compound 220]
- Plant response rating, Barnyardgrass (barnyardgrass [1]; [3]): 30
- Plant response rating, Barnyardgrass (barnyardgrass [1]; [4]): 40
- Barnyardgrass plant response rating (0 to 100 scale, 0 is no effect, 100 is complete control) (barnyardgrass [1]; Postemergence, 500 g ai/ha): 80
- Plant response rating, Barnyardgrass (barnyardgrass [1]; [5]): 80
- Plant response rating, Kochia (kochia; [3]): 0
- Plant response rating, Kochia (kochia; [4]): 0
- Kochia plant response rating (0 to 100 scale, 0 is no effect, 100 is complete control) (kochia; Postemergence, 500 g ai/ha): 40
- Plant response rating, Kochia (kochia; [5]): 40
- Plant response rating, Ragweed (ragweed; [3]): 0
- Plant response rating, Ragweed (ragweed; [4]): 0
- Ragweed plant response rating (0 to 100 scale, 0 is no effect, 100 is complete control) (ragweed; Postemergence, 500 g ai/ha): 0
- Plant response rating, Ragweed (ragweed; [5]): 0
- Plant response rating, Ryegrass, Italian (ryegrass, Italian; [3]): 0
- Plant response rating, Ryegrass, Italian (ryegrass, Italian; [4]): 0
- Ryegrass, Italian plant response rating (0 to 100 scale, 0 is no effect, 100 is complete control) (ryegrass, Italian; Postemergence, 500 g ai/ha): 20
- Plant response rating, Ryegrass, Italian (ryegrass, Italian; [5]): 30
- Plant response rating, Foxtail, Giant (giant foxtail; [3]): 80
- Plant response rating, Foxtail, Giant (giant foxtail; [4]): 50
- Foxtail, Giant plant response rating (0 to 100 scale, 0 is no effect, 100 is complete control) (giant foxtail; Postemergence, 500 g ai/ha): 80
- Plant response rating, Foxtail, Giant (giant foxtail; [5]): 90
- Plant response rating, Pigweed (pigweed; [3]): 0
- Plant response rating, Pigweed (pigweed; [4]): 0
- Pigweed plant response rating (0 to 100 scale, 0 is no effect, 100 is complete control) (pigweed; Postemergence, 500 g ai/ha): 0
- Plant response rating, Pigweed (pigweed; [5]): 20
- Plant response rating, Wheat (wheat; [6]): 0
- Wheat plant response rating (0 to 100 scale, 0 is no effect, 100 is complete control) (wheat): 20
- Plant response rating, Corn (corn; [7]): 0
- Corn plant response rating (0 to 100 scale, 0 is no effect, 100 is complete control) (corn; 500 g ai/ha): 20
- Plant response rating, Blackgrass (blackgrass; [7]): 0
- Blackgrass plant response rating (0 to 100 scale, 0 is no effect, 100 is complete control) (blackgrass; 500 g ai/ha): 40
- Plant response rating, Galium (galium; [6]): 0
- Galium plant response rating (0 to 100 scale, 0 is no effect, 100 is complete control) (galium): 30
- Plant response rating, Rice (rice): 0
- Plant response rating, Sedge, Umbrella (sedge, umbrella): 0
- Plant response rating, Ducksalad (ducksalad): 100
- Plant response rating, Barnyardgrass (barnyardgrass [2]): 0

SMILES: Cc1ccc(C2CNC(=O)C2C(=O)Nc2cccc(F)c2)cc1 (racemic) [Compound 153]
- Plant response rating, Barnyardgrass (barnyardgrass [1]; [3]): 80
- Plant response rating, Barnyardgrass (barnyardgrass [1]; [4]): 60
- Barnyardgrass plant response rating (0 to 100 scale, 0 is no effect, 100 is complete control) (barnyardgrass [1]; Postemergence, 500 g ai/ha): 80
- Plant response rating, Barnyardgrass (barnyardgrass [1]; preemergence, 500 g ai/ha, 0 to 100 scale (0 no effect, 100 complete control)): 90
- Plant response rating, Kochia (kochia; [3]): 60
- Plant response rating, Kochia (kochia; [4]): 60
- Kochia plant response rating (0 to 100 scale, 0 is no effect, 100 is complete control) (kochia; Postemergence, 500 g ai/ha): 60
- Plant response rating, Kochia (kochia; [5]): 80
- Plant response rating, Ragweed (ragweed; [3]): 0
- Plant response rating, Ragweed (ragweed; [4]): 0
- Ragweed plant response rating (0 to 100 scale, 0 is no effect, 100 is complete control) (ragweed; Postemergence, 500 g ai/ha): 10
- Plant response rating, Ragweed (ragweed; [5]): 80
- Plant response rating, Ryegrass, Italian (ryegrass, Italian; [3]): 0
- Plant response rating, Ryegrass, Italian (ryegrass, Italian; [4]): 0
- Ryegrass, Italian plant response rating (0 to 100 scale, 0 is no effect, 100 is complete control) (ryegrass, Italian; Postemergence, 500 g ai/ha): 0
- Plant response rating, Ryegrass, Italian (ryegrass, Italian; [5]): 0
- Plant response rating, Foxtail, Giant (giant foxtail; [3]): 60
- Plant response rating, Foxtail, Giant (giant foxtail; [4]): 50
- Foxtail, Giant plant response rating (0 to 100 scale, 0 is no effect, 100 is complete control) (giant foxtail; Postemergence, 500 g ai/ha): 60
- Plant response rating, Foxtail, Giant (giant foxtail; preemergence, 500 g ai/ha, 0 to 100 scale): 80
- Plant response rating, Pigweed (pigweed; [3]): 0
- Plant response rating, Pigweed (pigweed; [4]): 40
- Pigweed plant response rating (0 to 100 scale, 0 is no effect, 100 is complete control) (pigweed; Postemergence, 500 g ai/ha): 50
- Plant response rating, Pigweed (pigweed; [5]): 0
- Plant response rating, Wheat (wheat; [6]): 0
- Wheat plant response rating (0 to 100 scale, 0 is no effect, 100 is complete control) (wheat): 0
- Plant response rating, Corn (corn; [7]): 0
- Corn plant response rating (0 to 100 scale, 0 is no effect, 100 is complete control) (corn; 500 g ai/ha): 0
- Plant response rating, Blackgrass (blackgrass; [7]): 40
- Blackgrass plant response rating (0 to 100 scale, 0 is no effect, 100 is complete control) (blackgrass; 500 g ai/ha): 30
- Plant response rating, Galium (galium; [6]): 0
- Galium plant response rating (0 to 100 scale, 0 is no effect, 100 is complete control) (galium): 60
- Plant response rating, Rice (rice): 10
- Plant response rating, Sedge, Umbrella (sedge, umbrella): 0
- Plant response rating, Ducksalad (ducksalad): 100
- Plant response rating, Barnyardgrass (barnyardgrass [2]): 60

SMILES: O=C1NCC(c2ccc(OC(F)F)cc2)C1C(=O)Nc1ccccc1C(F)(F)F (centres unmarked) [Compound 348]
- Plant response rating, Barnyardgrass (barnyardgrass [1]; [8]): 20
- Plant response rating, Barnyardgrass (barnyardgrass [1]; [9]): 50
- Plant response rating, Barnyardgrass (barnyardgrass [1]; [10]): 30
- Barnyardgrass plant response rating (barnyardgrass [1]; [11]): 60
- Plant response rating, Kochia (kochia; [8]): 20
- Plant response rating, Kochia (kochia; [10]): 0
- Kochia plant response rating (kochia; [11]): 70
- Plant response rating, Ragweed (ragweed; [8]): 0
- Ragweed plant response rating (ragweed; [11]): 30
- Plant response rating, Ryegrass, Italian (ryegrass, Italian; [8]): 0
- Plant response rating, Ryegrass, Italian (ryegrass, Italian; [10]): 0
- Ryegrass, Italian plant response rating (ryegrass, Italian; [11]): 0
- Plant response rating, Foxtail, Giant (giant foxtail; [8]): 70
- Plant response rating, Foxtail, Giant (giant foxtail; [9]): 90
- Plant response rating, Foxtail, Giant (giant foxtail; [10]): 90
- Foxtail, Giant plant response rating (giant foxtail; [11]): 90
- Plant response rating, Pigweed (pigweed; [8]): 0
- Plant response rating, Pigweed (pigweed; [10]): 20
- Pigweed plant response rating (pigweed; [11]): 50
- Plant response rating, Wheat (wheat; [12]): 0
- Plant response rating, Corn (corn; [13]): 0
- Plant response rating, Corn (corn; [14]): 0
- Plant response rating, Blackgrass (blackgrass; [13]): 20
- Plant response rating, Blackgrass (blackgrass; [14]): 30
- Plant response rating, Galium (galium; [12]): 0
- Plant response rating, Rice (rice): 0
- Plant response rating, Sedge, Umbrella (sedge, umbrella): 0
- Plant response rating, Ducksalad (ducksalad): 100
- Plant response rating, Barnyardgrass (barnyardgrass [2]): 40
